In experiment [1] the test system is CDX2(+) derived cell lines D4 and B2. The experiment is described as follows: Long-term nutritional deprivation, cellular survival of cell colonies in vitro. It counts as cell-based.
Text: FIG. 6A depicts bar graphs that illustrate the long-term effect of nutritional deprivation on cellular survival in CDX2(−) and CDX2(+) cell colonies in vitro and the effect of treatment with autophagy inhibitors. […] P<0.001.
In experiment [2] the test system is CDX2(+) ovarian tumours in mice. The experiment is described as follows: Survival of mice with ovarian tumours treated with chloroquine. Format: in vivo, mouse. The following applies: chloroquine 10 mg/kg 3 times a week, initiated 30 days after delivery of tumor cells. The source says: For all experiments aged females (9-10 month) were used, as these represent targeted patient population (e.g., peri-menopausal women). Mice were sacrificed when ascites formed.

The test system of another experiment is OVCA429 CDX2. The experiment is described as follows: cells. The following applies: Homo sapiens, OVCA429, 48 h, read-out: 48 h IC50 CQ in adherent culture. The source says:
(§1) FIG. 7 depicts bar graphs that illustrate the results of an OVCA429 soft agar assay. […] This confirms the effect in human high grade serous ovarian cancer cells. […] CDX2(−) at left. […] P<0.005.

The subject of the next experiment is OVCA429 GAL (CDX2(−)). The experiment is described as follows: cells. The following applies: Homo sapiens, OVCA429, 48 h, read-out: 48 h IC50 CQ in adherent culture.
Text: as §1

The next experiment deals with Cdx2-expressing cells. The experiment is described as follows: Expression of autophagy genes after chloroquine in Cdx2-expressing cells. Format: cell-based.
In experiment [3] the test system is CDX2(+) ovarian cancer cells. Nature of the experiment: Hanging drop assay under starvation conditions. It counts as cell-based, mouse. From the text: FIG. 3A depicts a CDX2(−) parental control. FIGS. 3B and 3C depict CDX2(+) derived cell lines. The mouse ovarian cancer cell line MOSEC5 that is CDX2(−) was genetically modified to create CDX2(+) derived cell lines. Cells were placed in a “hanging drop” assay under starvation conditions.

For `Cn1cnc(N)c2ncnc1-2` [3-methyladenine], in experiment [1], the “survival of CDX2(+) cells after long-term stress” value is “reverse this survival”.
For orientation: IC50 means the concentration needed to halve the response being measured. Consider `CCN(CC)CCCC(C)Nc1ccnc2cc(Cl)ccc12` (stereo not shown) [chloroquine], for which the survival of mice result in experiment [2] is recorded as “prolongs survival of mice with ovarian tumours”. The survival of mice result in experiment [2] (listed as Chloroquine) is “improved survival in CDX2(+) mice”. Further, the IC50 with OVCA429 CDX2 is 9.3 µM. Besides, in the experiment on OVCA429 GAL (CDX2(−)), the IC50 came out at 11.5 µM. For the same compound, in the experiment on Cdx2-expressing cells, the “LAM P1 gene expression” value is “down-regulated”, the NPC gene expression entry is reported as “significantly up-regulated”, the SQSTM1 gene expression result is given as “significantly up-regulated” and the ULK2 gene expression entry is listed as “down-regulated”. In the experiment on Cdx2-expressing cells, the WIPI1 gene expression entry is on record as “significantly up-regulated”. In addition, in experiment [3], the cancer cell survival result was “reduce cancer cell survival” and the inhibition of autophagy entry is recorded as “did inhibit autophagy”. Also, the “survival of CDX2(+) cells after long-term stress” value in experiment [1] is “reverse this survival”.

The values above are taken from patent publication US20210215710A1, “METHODS FOR USE OF CDX2 AS A BIOMARKER TO GUIDE USE OF AUTOPHAGY INHIBITORS IN OVARIAN CANCER” (UNIVERSITY HEALTH NETWORK, priority 2019, published 2021).
